Measured values published in patent US20230257351A1, “SUBSTITUTED N-[…] HAVING P2X4 RECEPTOR ANTAGONISTIC ACTIVITY” (Bayer Aktiengesellschaft, priority 2020, published 2023).
pIC50: −log10 of the molar value.

Key:
human P2X4 = target: T1, human P2X4 (Homo sapiens, UniProt Q99571); assay: Human P2X4 HEK Cell FLIPR Assay; type: cell-based; settings: HEK293 stably expressing human P2X4, agonist Bz-ATP 3 μM (EC80); for pIC50: read-out: Human P2X4 HEK Cells (FLIPR Assay) avg IC50
T1 construct: expressed in transfected cells
T1 sequence (Q99571 1-388): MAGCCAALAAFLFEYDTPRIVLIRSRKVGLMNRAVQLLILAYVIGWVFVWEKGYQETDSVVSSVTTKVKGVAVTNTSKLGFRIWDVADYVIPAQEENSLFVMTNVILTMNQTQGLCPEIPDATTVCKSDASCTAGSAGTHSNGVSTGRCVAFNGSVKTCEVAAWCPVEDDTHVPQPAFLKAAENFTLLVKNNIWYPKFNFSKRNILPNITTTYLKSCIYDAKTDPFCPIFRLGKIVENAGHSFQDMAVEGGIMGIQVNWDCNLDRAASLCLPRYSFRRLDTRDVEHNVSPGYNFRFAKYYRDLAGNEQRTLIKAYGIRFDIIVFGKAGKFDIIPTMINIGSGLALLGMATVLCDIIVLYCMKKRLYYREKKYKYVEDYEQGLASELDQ
In short: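 HEK293 cells stably expressing human P2X4 were loaded with Fluo8-AM (30 min, 37 °C, HBSS/HEPES pH 7.4 with probenecid), then preincubated 30 min at room temperature with compound, 25 μM–1 nM final, 0.5% DMSO. Bz-ATP-evoked calcium fluorescence was read on FLIPR; data were normalized to agonist control and given a four-parameter fit for IC50.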

rat P2X4 = target: T2, rat P2X4 (Rattus norvegicus, UniProt P51577); assay: FLIPR Method for Rat P2X4 1321N1 Astrocytoma Cells; type: cell-based; settings: 1321N1 stably expressing rat P2X4; agonist MgATP 5 μM (EC80)
T2 construct: expressed in transfected cells
T2 sequence (P51577 1-388): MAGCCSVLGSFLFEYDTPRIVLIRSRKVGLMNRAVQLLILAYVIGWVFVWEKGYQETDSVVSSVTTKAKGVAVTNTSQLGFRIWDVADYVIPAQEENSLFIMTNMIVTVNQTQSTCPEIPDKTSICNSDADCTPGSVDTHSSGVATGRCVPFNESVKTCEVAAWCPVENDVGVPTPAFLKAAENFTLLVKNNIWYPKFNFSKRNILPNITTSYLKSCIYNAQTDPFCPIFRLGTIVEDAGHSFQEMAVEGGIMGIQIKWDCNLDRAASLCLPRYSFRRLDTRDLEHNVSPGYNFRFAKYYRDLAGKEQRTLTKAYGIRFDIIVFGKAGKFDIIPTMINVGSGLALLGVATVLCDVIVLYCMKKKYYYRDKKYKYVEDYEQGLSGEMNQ
Protocol: Compounds were tested on a 1321N1 cell line stably expressing rat P2X4. Cells were cultured on collagen-I-coated 384-well plates at a density of 10,000 cells/well and incubated overnight at 37° C., 5% CO2. P2X4 function was assessed by measuring intracellular calcium fluxes caused by Magnesium-ATP (MgATP) using the calcium-chelating dye Fluo8-AM (Molecular Devices) with the Fluorescent Imaging Plate Reader Tetra (FLIPR^Tetra; Molecular Devices CA). On the day of the assay, the medium was removed and the cells were incubated for 30 minutes at 37° C. and 5% CO2 in 30 μl of dye buffer (Hank's balanced salt solution, 10 mM HEPES, 1.8 mM CaCl2, 1 mM MgCl2, 2 mM probenecid, 5 mM D-glucose monohydrate, 5 μM Fluo8-AM, pH=7.4).
Compounds diluted in probenecid buffer (Hank's balanced salt solution, 10 mM HEPES, 1.8 mM CaCl2, 1 mM MgCl2, 2 mM probenecid, 5 mM D-glucose monohydrate, pH=7.4) at ten concentrations ranging from 25 μM to 1 nM (final concentration) were dispensed and incubated for 30 minutes at room temperature. The agonist, MgATP (Sigma-Aldrich Chemie GmbH, DE), was added at a final concentration of 5 μM, representing the EC80 routinely determined. The final assay volume was 50 μl and final DMSO concentration was 0.5%.
The fluorescence intensity reflecting intracellular calcium changes was recorded before and after MgATP addition, at an excitation and emission wavelengths of 470-495 nm and 515-575 nm respectively.
The compounds were tested in triplicates and fluorescence intensity raw data normalized to the agonist control and fitted to the four-parameter logistic equation:
Y=Bottom+(Top−Bottom)/(1+10^((Log IC50−X)*HillSlope))
Assay plate acceptance was based on the signal window (S/B)[…] and the reference compound pIC50 within ±[…] the mean of historic pIC50 of the compound. Failure to meet two of the three criteria determined exclusion of the plate's results. In Table 10 below the results for the assays are reported

Row | Compound | Human P2X4 HEK Cells (FLIPR Assay) avg Efficacy (human P2X4) [%] | pIC50 (human P2X4) | pIC50 (rat P2X4) | Rat P2X4 1321N1 Astrocytoma Cells (FLIPR Assay) avg Efficacy (rat P2X4) [%]
1 | CC(=O)N(c1ccc(F)c(F)c1)c1cc(NC(=O)Cc2c(Cl)cc(C)cc2Cl)ccn1 [Example 74, N-{4-[2-(2,6-dichloro-4-methylphenyl)acetamido]pyridin-2-yl}-N-(3,4-difluorophenyl)acetamide] | 89 | 6.23 | 7.00 | 97
2 | CC(=O)N(c1cc(F)cc(F)c1)c1cc(NC(=O)Cc2ccccc2C(F)(F)F)ccn1 [Example 84, N-(3,5-difluorophenyl)-N-(4-{2-[2-(trifluoromethyl)phenyl]acetamido}pyridin-2-yl)acetamide] | 100 | 6.50 | 5.99 | 100
3 | CC(=O)N(c1ccc(F)c(F)c1)c1cc(NC(=O)Cc2c(C)cccc2C)ccn1 [Example 66, N-(3,4-difluorophenyl)-N-{4-[2-(2,6-dimethylphenyl)acetamido]pyridin-2-yl}acetamide] | 90 | 6.52 | 7.19 | 73
4 | CC(=O)N(c1cc(F)cc(F)c1)c1cc(NC(=O)Cc2c(Cl)cccc2Cl)ccn1 [Example 89, N-{4-[2-(2,6-dichlorophenyl)acetamido]pyridin-2-yl}-N-(3,5-difluorophenyl)acetamide] | 99 | 6.77 | 6.99 | 98
5 | CC(=O)N(c1ccc(F)c(C#N)c1)c1cc(NC(=O)Cc2cccc(F)c2Cl)ccn1 [Example 23, N-{4-[2-(2-chloro-3-fluorophenyl)acetamido]pyridin-2-yl}-N-(3-cyano-4-fluorophenyl)acetamide] | 99 | 6.45 | 6.32 | 96
6 | COc1ccc(N(C(C)=O)c2cc(NC(=O)Cc3cccc(F)c3Cl)ccn2)cc1F [Example 79, N-{4-[2-(2-chloro-3-fluorophenyl)acetamido]pyridin-2-yl}-N-(3-fluoro-4-methoxyphenyl)acetamide] | 97 | 6.40 | 5.95 | 96
7 | COc1cccc(N(C(C)=O)c2cc(NC(=O)Cc3ccccc3Cl)ccn2)c1 [Example 100, N-{4-[2-(2-chlorophenyl)acetamido]pyridin-2-yl}-N-(3-methoxyphenyl)acetamide] | 98 | 6.39 | 6.02 | 98
8 | CC(=O)N(c1cccc(C#N)c1)c1cc(NC(=O)Cc2c(Cl)cccc2Cl)ccn1 [Example 14, N-(3-cyanophenyl)-N-{4-[2-(2,6-dichlorophenyl)acetamido]pyridin-2-yl)acetamide] | 100 | 6.61 | 6.70 | 98
9 | CCCC(=O)N(c1ccc(F)cc1)c1cc(NC(=O)Cc2ccccc2Cl)ccn1 [Example 143, N-{4-[2-(2-chlorophenyl)acetamido]pyridin-2-yl}-N-(4-fluorophenyl)butanamide] | 94 | 6.14 | 6.03 | 101
10 | COc1ccc(N(C(C)=O)c2cc(NC(=O)Cc3c(Cl)cccc3Cl)ccn2)cc1F [Example 80, N-{4-[2-(2,6-dichlorophenyl)acetamido]pyridin-2-yl}-N-(3-fluoro-4-methoxyphenyl)acetamide] | 99 | 6.35 | 6.47 | 97
11 | CC(=O)N(c1ccc(F)cc1)c1cc(NC(=O)Cc2ccccc2C(F)(F)F)ccn1 [Example 30, N-(4-fluorophenyl)-N-(4-{2-[2-(trifluoromethyl)phenyl]acetamido}pyridin-2-yl)acetamide] | 98 | 6.42 | 6.14 | 96
12 | CCCC(=O)N(c1ccc(F)cc1)c1cc(NC(=O)Cc2c(F)cccc2Cl)ccn1 [Example 142, N-{4-[2-(2-chloro-6-fluorophenyl)acetamido]pyridin-2-yl}-N-(4-fluorophenyl)butanamide] | 86 | 6.10 | 6.12 | 98
13 | CC(=O)N(c1cccc(C(F)F)c1)c1cc(NC(=O)Cc2c(Cl)cccc2Cl)ccn1 [Example 5, N-{4-[2-(2,6-dichlorophenyl)acetamido]pyridin-2-yl}-N-[3-(difluoromethyl)phenyl]acetamide] | 102 | 6.41 | 6.36 | 100

Other lines, results leading:

Row | Human P2X4 HEK Cells (FLIPR Assay) avg Efficacy (human P2X4) [%] | pIC50 (human P2X4) | pIC50 (rat P2X4) | Rat P2X4 1321N1 Astrocytoma Cells (FLIPR Assay) avg Efficacy (rat P2X4) [%] | Compound
14 | 97 | 6.45 | 7.23 | 89 | CC(=O)N(c1ccc(F)c(F)c1)c1cc(NC(=O)Cc2c(Cl)cccc2Cl)ccn1 [Example 72, N-{4-[2-(2,6-dichlorophenyl)acetamido]pyridin-2-yl}-N-(3,4-difluorophenyl)acetamide]
15 | 98 | 6.52 | 6.64 | 97 | CC(=O)N(c1cccc(Cl)c1)c1cc(NC(=O)Cc2ccc(F)cc2Cl)ccn1 [Example 132, N-{4-[2-(2-chloro-4-fluorophenyl)acetamido]pyridin-2-yl}-N-(3-chlorophenyl)acetamide]
16 | 96 | 6.39 | 6.39 | 97 | CC(=O)N(c1cc(NC(=O)Cc2ccc(F)cc2Cl)ccn1)c1cc(F)ccc1Cl [Example 112, N-(2-chloro-5-fluorophenyl)-N-{4-[2-(2-chloro-4-fluorophenyl)acetamido]pyridin-2-yl}acetamide]
17 | 100 | 6.71 | 6.49 | 100 | CC(=O)N(c1cccc(Cl)c1)c1cc(NC(=O)Cc2cccc(F)c2Cl)ccn1 [Example 133, N-{4-[2-(2-chloro-3-fluorophenyl)acetamido]pyridin-2-yl}-N-(3-chlorophenyl)acetamide]
18 | 97 | 6.36 | 6.20 | 89 | CC(=O)N(c1cc(NC(=O)Cc2ccc(F)cc2Cl)ccn1)c1cccc(F)c1F [Example 123, N-{4-[2-(2-chloro-4-fluorophenyl)acetamido]pyridin-2-yl}-N-(2,3-difluorophenyl)acetamide]
19 | 95 | 6.05 | 6.62 | 96 | CC(=O)N(c1ccc(F)cc1)c1cc(NC(=O)Cc2ccc(F)cc2Cl)ccn1 [Example 37, N-{4-[2-(2-chloro-4-fluorophenyl)acetamido]pyridin-2-yl}-N-(4-fluorophenyl)acetamide]
